Results: the NIST ThermoML archive (doi:10.1016/j.fluid.2014.04.002)

Experiment: xn = mol fraction of the nth substance listed
Settings: 101 kPa, Liquid; for viscosity: Concentric cylinders viscometry; for mass density: Vibrating tube method

CCOC(=O)C(C)O (stereo not drawn) [DL-ethyl lactate] + CC(O)CO
Settings	mass density [kg/m3]	viscosity [mPa·s]
288.15 K, x1 = 0.1	1039.89	49.88
288.15 K, x1 = 0.2	1039.87	30.87
288.15 K, x1 = 0.3	1039.88	21.2
288.15 K, x1 = 0.3999	1039.91	14.75
288.15 K, x1 = 0.4998	1039.94	10.62
288.15 K, x1 = 0.599	1039.96	7.616
288.15 K, x1 = 0.6999	1039.9	6.169
288.15 K, x1 = 0.7994	1039.72	4.764
288.15 K, x1 = 0.8997	1039.32	4.114
288.15 K, x1 = 1	1039.28	3.207
293.15 K, x1 = 0.1	1036.36	36.91
293.15 K, x1 = 0.2	1035.81	23.41
293.15 K, x1 = 0.3	1035.6	16.34
293.15 K, x1 = 0.3999	1035.44	11.64
293.15 K, x1 = 0.4998	1035.3	8.236
293.15 K, x1 = 0.599	1035.15	6.227
293.15 K, x1 = 0.6999	1034.93	5.098
293.15 K, x1 = 0.7994	1034.57	4.153
293.15 K, x1 = 0.8997	1034.01	3.478
293.15 K, x1 = 1	1033.84	2.75
298.15 K, x1 = 0.1	1032.13	27.72
298.15 K, x1 = 0.2	1031.64	18.11
298.15 K, x1 = 0.3	1031.2	12.87
298.15 K, x1 = 0.3999	1030.83	9.303
298.15 K, x1 = 0.4998	1030.52	6.75
298.15 K, x1 = 0.599	1030.23	5.172
298.15 K, x1 = 0.6999	1029.94	4.274
298.15 K, x1 = 0.7994	1029.58	3.521
298.15 K, x1 = 0.8997	1029.08	2.978
298.15 K, x1 = 1	1028.39	2.39
303.15 K, x1 = 0.1	1028.31	21.49
303.15 K, x1 = 0.2	1027.6	14.26
303.15 K, x1 = 0.3	1026.98	10.37
303.15 K, x1 = 0.3999	1026.44	7.605
303.15 K, x1 = 0.4998	1025.95	5.615
303.15 K, x1 = 0.599	1025.46	4.35
303.15 K, x1 = 0.6999	1024.89	3.632
303.15 K, x1 = 0.7994	1024.21	3.021
303.15 K, x1 = 0.8997	1023.32	2.582
303.15 K, x1 = 1	1022.92	2.097
308.15 K, x1 = 0.1	1024.23	16.84
308.15 K, x1 = 0.2	1023.36	11.41
308.15 K, x1 = 0.3	1022.6	8.434
308.15 K, x1 = 0.3999	1021.9	6.292
308.15 K, x1 = 0.4998	1021.21	4.739
308.15 K, x1 = 0.599	1020.5	3.704
308.15 K, x1 = 0.6999	1019.72	3.118
308.15 K, x1 = 0.7994	1018.88	2.626
308.15 K, x1 = 0.8997	1017.93	2.259
308.15 K, x1 = 1	1017.42	1.858
313.15 K, x1 = 0.1	1020.4	13.41
313.15 K, x1 = 0.2	1019.26	9.264
313.15 K, x1 = 0.3	1018.24	6.949
313.15 K, x1 = 0.3999	1017.32	5.27
313.15 K, x1 = 0.4998	1016.47	4.04
313.15 K, x1 = 0.599	1015.64	3.187
313.15 K, x1 = 0.6999	1014.75	2.706
313.15 K, x1 = 0.7994	1013.74	2.302
313.15 K, x1 = 0.8997	1012.53	1.995
313.15 K, x1 = 1	1011.9	1.658
318.15 K, x1 = 0.1	1016.39	10.83
318.15 K, x1 = 0.2	1015.04	7.619
318.15 K, x1 = 0.3	1013.82	5.804
318.15 K, x1 = 0.3999	1012.72	4.465
318.15 K, x1 = 0.4998	1011.69	3.482
318.15 K, x1 = 0.599	1010.69	2.767
318.15 K, x1 = 0.6999	1009.63	2.368
318.15 K, x1 = 0.7994	1008.46	2.034
318.15 K, x1 = 0.8997	1007.1	1.774
318.15 K, x1 = 1	1006.36	1.491
323.15 K, x1 = 0.1	1012.34	8.86
323.15 K, x1 = 0.2	1010.78	6.34
323.15 K, x1 = 0.3	1009.36	4.904
323.15 K, x1 = 0.3999	1008.08	3.824
323.15 K, x1 = 0.4998	1006.88	3.03
323.15 K, x1 = 0.599	1005.71	2.423
323.15 K, x1 = 0.6999	1004.48	2.09
323.15 K, x1 = 0.7994	1003.15	1.81
323.15 K, x1 = 0.8997	1001.64	1.589
323.15 K, x1 = 1	1000.79	1.349
